Patent US20220387604A1, “SELECTIVE DUAL HISTONE DEACETYLASE 6/8 (HDAC6/8) DEGRADERS AND METHODS OF USE THEREOF” (DANA-FARBER CANCER INSTITUTE, INC., priority 2019, published 2022)

Columns and labels:
Assay type in all cases: biochemical
HDAC6 = target: T1, HDAC6 (Homo sapiens, UniProt Q9UBN7); test: HDAC enzymatic assay (Reaction Biology), HDAC6; conditions: 10-dose response curve; read-out: Compound IC50 (M), HDAC6
T1 construct: purchased Reaction Biology
T1 sequence (Q9UBN7 1-1215): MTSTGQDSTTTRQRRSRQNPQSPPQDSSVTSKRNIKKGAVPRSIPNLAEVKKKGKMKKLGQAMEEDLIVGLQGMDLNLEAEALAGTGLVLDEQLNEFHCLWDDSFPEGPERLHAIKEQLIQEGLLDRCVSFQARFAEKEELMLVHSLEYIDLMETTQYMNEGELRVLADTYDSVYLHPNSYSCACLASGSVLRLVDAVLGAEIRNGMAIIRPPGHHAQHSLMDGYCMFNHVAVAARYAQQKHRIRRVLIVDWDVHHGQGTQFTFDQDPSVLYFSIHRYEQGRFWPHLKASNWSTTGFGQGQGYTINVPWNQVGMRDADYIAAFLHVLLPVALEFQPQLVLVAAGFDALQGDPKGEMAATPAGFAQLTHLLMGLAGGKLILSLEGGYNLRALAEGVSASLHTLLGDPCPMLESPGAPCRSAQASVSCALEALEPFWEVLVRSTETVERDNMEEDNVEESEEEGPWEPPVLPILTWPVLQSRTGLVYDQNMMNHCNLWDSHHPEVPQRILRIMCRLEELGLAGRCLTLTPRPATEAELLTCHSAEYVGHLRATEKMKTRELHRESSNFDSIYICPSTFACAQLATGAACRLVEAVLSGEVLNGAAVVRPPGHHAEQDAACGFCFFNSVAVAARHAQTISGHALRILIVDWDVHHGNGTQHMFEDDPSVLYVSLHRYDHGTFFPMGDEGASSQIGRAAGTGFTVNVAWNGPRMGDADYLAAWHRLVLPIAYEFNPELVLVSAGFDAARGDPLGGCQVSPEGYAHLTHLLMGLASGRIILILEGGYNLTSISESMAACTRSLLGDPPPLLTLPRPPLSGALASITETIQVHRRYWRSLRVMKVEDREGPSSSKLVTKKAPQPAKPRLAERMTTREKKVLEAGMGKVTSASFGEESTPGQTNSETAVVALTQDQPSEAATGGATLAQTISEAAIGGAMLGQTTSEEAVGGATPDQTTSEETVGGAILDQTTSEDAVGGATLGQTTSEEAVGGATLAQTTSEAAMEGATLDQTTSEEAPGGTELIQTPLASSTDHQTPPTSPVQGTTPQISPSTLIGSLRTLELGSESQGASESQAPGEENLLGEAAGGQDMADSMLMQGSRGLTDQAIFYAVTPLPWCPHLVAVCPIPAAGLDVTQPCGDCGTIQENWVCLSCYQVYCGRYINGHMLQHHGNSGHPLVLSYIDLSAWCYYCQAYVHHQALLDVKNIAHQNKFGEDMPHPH
Description: (§1) Compound 1 was tested in an enzymatic assay from Reaction Biology® against 10 HDAC isoforms. The IC50 values were derived from a 10-dose response curve.
(§2) Base Reaction buffer: 50 mM Tris-HCl, pH8.0, 137 mM NaCl, 2.7 mM KCl, and 1 mM MgCl2, Add fresh: 1 mg/ml BSA, 1% DMSO
(§3) Fluorogenic HDAC General Substrate (HDAC1, HDAC2, HDAC3, HDAC6, HDAC10, and HDAC11): 50 μM, Arg-His-Lys-Lys(Ac)-AMC
(§4) 1. Delivered 2× enzyme in wells of reaction plate except in the control wells and added buffer to control wells. 2. Delivered compounds in 100% DMSO into the enzyme mixture by Acoustic technology (Echo550; nanoliter range). Spin down and pre-incubation. 3. Delivered 2× Substrate Mixture (Fluorogenic HDAC Substrate and co-factor if applicable) in all reaction wells to initiate the reaction. Spin and shake. 4. Incubated for 30 min for Class 2A, 1 h for HDAC1, 2, 3, and 6, and 2 h for the rest of HDAC isoforms and SIRTs at 30° C. with seal.
(§5) 5. Added Developer with Trichostatin A (or Nicotinamide for SIRTs) to stop the reaction and to generate fluorescent color. 6. The fluorescence that was generated was detected with excitation (Ex) at […] and emission (Em) at 460 nM by the EnVision Multilabel Plate Reader (PerkinElmer®, Santa Clara, Calif., USA).
(§6) IC50 values were derived from a 10-dose response curve.

HDAC3 = target: T2, HDAC3 (Homo sapiens, UniProt O15379); test: HDAC enzymatic assay (Reaction Biology), HDAC3
T2 construct: purchased Reaction Biology
T2 sequence (O15379 whole entry): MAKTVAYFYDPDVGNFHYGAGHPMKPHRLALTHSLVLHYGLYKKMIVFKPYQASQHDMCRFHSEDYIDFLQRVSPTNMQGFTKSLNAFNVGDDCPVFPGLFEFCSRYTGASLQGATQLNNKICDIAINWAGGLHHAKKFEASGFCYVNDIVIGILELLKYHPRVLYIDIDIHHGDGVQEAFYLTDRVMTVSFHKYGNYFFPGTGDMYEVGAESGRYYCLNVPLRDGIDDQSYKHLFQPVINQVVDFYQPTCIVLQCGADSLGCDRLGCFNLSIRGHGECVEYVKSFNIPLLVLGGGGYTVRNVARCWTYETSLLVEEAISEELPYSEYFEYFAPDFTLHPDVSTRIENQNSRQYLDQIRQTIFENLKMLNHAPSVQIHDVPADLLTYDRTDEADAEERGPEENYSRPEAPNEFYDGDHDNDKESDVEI
T2 sequence (Q9Y618 395-489 partner limits assumed): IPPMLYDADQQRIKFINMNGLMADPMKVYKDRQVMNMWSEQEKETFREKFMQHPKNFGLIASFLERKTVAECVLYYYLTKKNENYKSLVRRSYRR
Description: as §1, §2, §3, §4, §5, §6

HDAC1 = target: T3, HDAC1 (Homo sapiens, UniProt Q13547); test: HDAC enzymatic assay (Reaction Biology), HDAC1
T3 construct: purchased Reaction Biology
T3 sequence (Q13547 whole entry): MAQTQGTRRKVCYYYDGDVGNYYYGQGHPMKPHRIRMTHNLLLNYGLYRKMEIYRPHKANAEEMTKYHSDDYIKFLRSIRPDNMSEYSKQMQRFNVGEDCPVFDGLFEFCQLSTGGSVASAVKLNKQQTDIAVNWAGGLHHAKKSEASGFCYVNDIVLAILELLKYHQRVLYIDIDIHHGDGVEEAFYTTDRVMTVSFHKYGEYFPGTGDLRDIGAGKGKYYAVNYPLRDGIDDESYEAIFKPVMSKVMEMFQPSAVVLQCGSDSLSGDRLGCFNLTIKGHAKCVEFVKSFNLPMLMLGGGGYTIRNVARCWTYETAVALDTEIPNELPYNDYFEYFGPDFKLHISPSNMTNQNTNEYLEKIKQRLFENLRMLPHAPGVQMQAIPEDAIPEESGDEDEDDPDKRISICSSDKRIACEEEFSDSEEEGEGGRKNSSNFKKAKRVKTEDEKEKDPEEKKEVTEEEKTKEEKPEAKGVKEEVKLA
Description: as §1, §2, §3, §4, §5, §6

Compound: O=C(/C=C/c1ccc(CN(CCOCCOCCNc2cccc3c2C(=O)N(C2CCC(=O)NC2=O)C3=O)CCc2c[nH]c3ccccc23)cc1)NO (centres unmarked) [Compound 1, (E)-3-(4-(((2-(1H-indol-3-yl)ethyl)(2-(2-(2-((2-(2,6-dioxopiperidin-3-yl)-1,3-dioxoisoindolin-4-yl)amino)ethoxy)ethoxy)ethyl)amino)methyl)phenyl)-N-hydroxyacrylamide]
- IC50 (HDAC6): 1.6e-07 M
- IC50 (HDAC3; 10-dose response curve, read-out: Compound IC50 (M), HDAC3): 1.29e-06 M
- inhibition of enzymatic activity of HDAC3 (in words) (HDAC3; summary of Table 1): Moderate inhibition
- IC50 (HDAC1; 10-dose response curve, read-out: Compound IC50 (M), HDAC1): 1.06e-06 M
- inhibition of enzymatic activity of HDAC1 (in words) (HDAC1; summary of Table 1): Moderate inhibition
